Series [1] concerns the target T1, ACPase II (Trichoderma harzianum, UniProt A0A2T3ZY58).
T1 construct: gene M431DRAFT_96728
T1 sequence (A0A2T3ZY58 21-556): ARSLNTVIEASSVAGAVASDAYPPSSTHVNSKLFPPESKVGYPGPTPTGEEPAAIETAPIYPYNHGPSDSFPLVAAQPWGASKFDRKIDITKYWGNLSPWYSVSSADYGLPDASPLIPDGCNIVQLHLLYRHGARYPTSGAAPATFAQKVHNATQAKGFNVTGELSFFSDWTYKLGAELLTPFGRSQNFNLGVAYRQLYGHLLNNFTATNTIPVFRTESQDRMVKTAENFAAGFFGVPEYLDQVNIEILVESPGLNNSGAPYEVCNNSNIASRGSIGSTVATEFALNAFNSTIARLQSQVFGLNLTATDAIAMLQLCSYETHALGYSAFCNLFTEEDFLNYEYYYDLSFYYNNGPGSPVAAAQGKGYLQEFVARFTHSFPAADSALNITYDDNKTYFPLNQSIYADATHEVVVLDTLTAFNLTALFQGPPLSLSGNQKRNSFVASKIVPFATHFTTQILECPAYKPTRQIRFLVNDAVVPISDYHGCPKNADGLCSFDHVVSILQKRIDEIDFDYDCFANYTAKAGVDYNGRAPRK
To be noted: 5000 µM; 5 mM inorganic phosphate, 60°C; Table 3 gives residual activity instead.

Series [2] deals with the molecule itself. Nature of the series: SEC + other: dynamic light scattering; data not shown; ACPase II in solution, eluted in the void volume; hydrodynamic radius 14.3 nm, mass 326 kDa; conditions of the light scattering not told.

As to `O=P(O)(O)O` [sodium phosphate], the “ACPase II” value in series [1] was 65.0 ± 2.0%.

B1: ACPase II (acid phosphatase II) from Trichoderma harzianum (enzyme)
chain: ARSLNTVIEASSVAGAVASDAYPPSSTHVNSKLFPPESKVGYPGPTPTGEEPAAIETAPIYPYNHGPSDSFPLVAAQPWGASKFDRKIDITKYWGNLSPWYSVSSADYGLPDASPLIPDGCNIVQLHLLYRHGARYPTSGAAPATFAQKVHNATQAKGFNVTGELSFFSDWTYKLGAELLTPFGRSQNFNLGVAYRQLYGHLLNNFTATNTIPVFRTESQDRMVKTAENFAAGFFGVPEYLDQVNIEILVESPGLNNSGAPYEVCNNSNIASRGSIGSTVATEFALNAFNSTIARLQSQVFGLNLTATDAIAMLQLCSYETHALGYSAFCNLFTEEDFLNYEYYYDLSFYYNNGPGSPVAAAQGKGYLQEFVARFTHSFPAADSALNITYDDNKTYFPLNQSIYADATHEVVVLDTLTAFNLTALFQGPPLSLSGNQKRNSFVASKIVPFATHFTTQILECPAYKPTRQIRFLVNDAVVPISDYHGCPKNADGLCSFDHVVSILQKRIDEIDFDYDCFANYTAKAGVDYNGRAPRK
modifications: glycoprotein, approximately 30% carbohydrate (N- and O-glycosylation)
The term stoichiometry N denotes the number of molecules, sites or subunits per partner or assembly. Regarding B1, in series [2], the “stoichiometry N” value was found to be 4.

(Values after article PMC4777480, “Trichoderma harzianum Produces a New Thermally Stable Acid Phosphatase, with Potential for Biotechnological Application” (PLoS ONE, 2016).)
